In ChEMBL document CHEMBL3885861, “Open TG-GATES”:

Organism: Rattus norvegicus
Experiment: Open TG-GATES - Regimen: Single
Type: toxicity, organism-based, Sprague-Dawley
Set-up: regimen Single, gender Male, age 6 weeks
Conditions: in vivo, po, 10 mg/kg, route gavage, dose level Middle; for APTT / Bas / Eos / Fbg / Hb / Ht / Lym / MCH / MCHC / Mono / Neu / Plat / RBC / Ret / WBC: tissue Blood; for KIDNEY_L / KIDNEY_R / KIDNEY_TOTAL: tissue Kidney; for LIVER: tissue Liver

`O=C(CCCN1CCC(O)(c2ccc(Cl)cc2)CC1)c1ccc(F)cc1` [HALOPERIDOL] gave a gamma-GTP (6 h, tissue Plasma) of 1.2 IU/L, a TERMINAL_BW (9 h) of 195.8 g and an APTT (9 h) of 17 s. It also gave a Bas (9 h) of 0%, an Eos (9 h) of 0.4% and a Fbg (9 h) of 210 mg/dL. For the same molecule, the Hb (9 h) was 13.9 g/dL, the Ht (9 h) was 41.8% and the Lym (9 h) was 75.8%. For the same molecule, the MCH (9 h) was 21.8 pg, the MCHC (9 h) was 33.4% and the Mono (9 h) was 7.8%. It also gave a Neu (9 h) of 16%, a Plat (9 h) of 101.8 x10_4/uL and an RBC (9 h) of 641.2 x10_4/ul. The Ret (9 h) was 8.6%, the WBC (9 h) was 63.2 x10_2/uL and the KIDNEY_L (9 h) was 0.9 g. The KIDNEY_R (9 h) was 0.9 g, the KIDNEY_TOTAL (9 h) was 1.7 g and the LIVER (9 h) was 8.4 g. For the same molecule, the ALP (9 h, tissue Plasma) was 812.8 IU/L, the ALT (9 h, tissue Plasma) was 27.8 IU/L and the AST (9 h, tissue Plasma) was 53.8 IU/L. The BUN (9 h, tissue Plasma) was 9.2 mg/dL, the CRE (9 h, tissue Plasma) was 0.6 mg/dL and the Ca (9 h, tissue Plasma) was 10.1 mg/dL. The Cl (9 h, tissue Plasma) was 107 meq/L, the DBIL (9 h, tissue Plasma) was 0.024 mg/dL and the GLC (9 h, tissue Plasma) was 200.2 mg/dL. For the same molecule, the IP (9 h, tissue Plasma) was 11.1 mg/dL, the K (9 h, tissue Plasma) was 4.6 meq/L and the LDH (9 h, tissue Plasma) was 100 IU/L. It also gave a Na (9 h, tissue Plasma) of 139.6 meq/L, a PL (9 h, tissue Plasma) of 134.2 mg/dL and an RALB (9 h, tissue Plasma) of 3.7 g/dL. For the same molecule, the TBIL (9 h, tissue Plasma) was 0.4 mg/dL, the TC (9 h, tissue Plasma) was 76.4 mg/dL and the TG (9 h, tissue Plasma) was 25.8 mg/dL. For the same molecule, the TP (9 h, tissue Plasma) was 5.5 g/dL, the gamma-GTP (9 h, tissue Plasma) was 2.6 IU/L and the TERMINAL_BW (24 h) was 213.1 g. It also gave an APTT (24 h) of 16.2 s, a Bas (24 h) of 0% and an Eos (24 h) of 1.2%. For the same molecule, the Fbg (24 h) was 193.4 mg/dL, the Hb (24 h) was 14.2 g/dL and the Ht (24 h) was 42.4%. For the same molecule, the Lym (24 h) was 82%, the MCH (24 h) was 21.9 pg and the MCHC (24 h) was 33.5%. It also gave a Mono (24 h) of 6.8%, a Neu (24 h) of 10% and a Plat (24 h) of 114.7 x10_4/uL. It also gave an RBC (24 h) of 648 x10_4/ul, a Ret (24 h) of 8.2% and a WBC (24 h) of 76.5 x10_2/uL. It also gave a KIDNEY_L (24 h) of 1 g, a KIDNEY_R (24 h) of 0.9 g and a KIDNEY_TOTAL (24 h) of 1.9 g. For the same molecule, the LIVER (24 h) was 10.5 g, the ALP (24 h, tissue Plasma) was 1019.6 IU/L and the ALT (24 h, tissue Plasma) was 32.6 IU/L. The AST (24 h, tissue Plasma) was 62.2 IU/L, the BUN (24 h, tissue Plasma) was 23.8 mg/dL and the CRE (24 h, tissue Plasma) was 0.5 mg/dL. The Ca (24 h, tissue Plasma) was 11.2 mg/dL, the Cl (24 h, tissue Plasma) was 104.6 meq/L and the DBIL (24 h, tissue Plasma) was 0.034 mg/dL. It also gave a GLC (24 h, tissue Plasma) of 182.4 mg/dL, an IP (24 h, tissue Plasma) of 8.2 mg/dL and a K (24 h, tissue Plasma) of 5 meq/L. It also gave an LDH (24 h, tissue Plasma) of 102.4 IU/L, a Na (24 h, tissue Plasma) of 140 meq/L and a PL (24 h, tissue Plasma) of 160.2 mg/dL. For the same molecule, the RALB (24 h, tissue Plasma) was 3.9 g/dL, the TBIL (24 h, tissue Plasma) was 0.3 mg/dL and the TC (24 h, tissue Plasma) was 79.8 mg/dL. The TP (24 h, tissue Plasma) was 6 g/dL and the gamma-GTP (24 h, tissue Plasma) was 1 IU/L.
